# US20250120967A1, “TYROSINE KINASES INHIBITORS AND USES THEREOF” (GREAT NOVEL THERAPEUTICS BIOTECH & MEDICALS CORPORATION, priority 2023, published 2025)
# Experiments:
# AURKC (Aurora C) = target: T1, AURKC (Aurora C) (Homo sapiens, UniProt Q9UQB9); assay: Tyrosine kinase inhibition assay; format: biochemical; settings: single concentration 1.0 μM, read-out: percent inhibition
# T1 sequence (Q9UQB9 1-309): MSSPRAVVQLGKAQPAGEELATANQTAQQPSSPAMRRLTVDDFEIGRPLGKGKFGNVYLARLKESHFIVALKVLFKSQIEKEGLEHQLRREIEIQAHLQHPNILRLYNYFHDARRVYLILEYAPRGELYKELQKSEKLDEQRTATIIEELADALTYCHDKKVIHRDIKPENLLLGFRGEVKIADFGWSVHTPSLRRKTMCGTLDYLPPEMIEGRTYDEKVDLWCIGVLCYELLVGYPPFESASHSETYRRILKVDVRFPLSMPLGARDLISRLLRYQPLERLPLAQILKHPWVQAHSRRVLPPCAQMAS
# How it was run: (§1)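 Kinase activity was measured by Z′-LYTE peptide assay with ATP at the apparent Km, in kinase buffer (50 mM HEPES pH 7.5, 0.01% BRIJ-35, 10 mM MgCl2, 1 mM EGTA) with 1% DMSO final. Compounds were tested at a single 1.0 μM concentration and reported as percent inhibition; >80% counted as a hit.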
# SRMS (Srm) = SRMS (Srm) (Homo sapiens, UniProt Q9H3Y6); assay: Tyrosine kinase inhibition assay; format: biochemical; settings: single concentration 1.0 μM, read-out: percent inhibition
# Sequence of SRMS (Srm) (Q9H3Y6 whole entry): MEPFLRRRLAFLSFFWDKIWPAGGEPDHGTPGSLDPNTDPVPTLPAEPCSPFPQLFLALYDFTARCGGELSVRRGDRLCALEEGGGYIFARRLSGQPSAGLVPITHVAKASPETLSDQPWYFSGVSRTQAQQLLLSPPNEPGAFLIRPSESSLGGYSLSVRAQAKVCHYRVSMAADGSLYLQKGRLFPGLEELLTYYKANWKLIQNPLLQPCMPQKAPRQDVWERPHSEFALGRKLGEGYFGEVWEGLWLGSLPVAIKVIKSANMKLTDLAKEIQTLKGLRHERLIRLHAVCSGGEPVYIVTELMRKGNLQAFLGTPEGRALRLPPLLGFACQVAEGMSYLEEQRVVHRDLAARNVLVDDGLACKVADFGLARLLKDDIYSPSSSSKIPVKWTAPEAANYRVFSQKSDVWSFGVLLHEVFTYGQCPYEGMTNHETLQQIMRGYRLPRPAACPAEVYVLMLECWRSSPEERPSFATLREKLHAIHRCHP
# How it was run: as §1
# MUSK = target: T2, MUSK (Homo sapiens, UniProt O15146); assay: Tyrosine kinase inhibition assay; format: biochemical; settings: single concentration 1.0 μM, read-out: percent inhibition
# T2 sequence (O15146 24-869): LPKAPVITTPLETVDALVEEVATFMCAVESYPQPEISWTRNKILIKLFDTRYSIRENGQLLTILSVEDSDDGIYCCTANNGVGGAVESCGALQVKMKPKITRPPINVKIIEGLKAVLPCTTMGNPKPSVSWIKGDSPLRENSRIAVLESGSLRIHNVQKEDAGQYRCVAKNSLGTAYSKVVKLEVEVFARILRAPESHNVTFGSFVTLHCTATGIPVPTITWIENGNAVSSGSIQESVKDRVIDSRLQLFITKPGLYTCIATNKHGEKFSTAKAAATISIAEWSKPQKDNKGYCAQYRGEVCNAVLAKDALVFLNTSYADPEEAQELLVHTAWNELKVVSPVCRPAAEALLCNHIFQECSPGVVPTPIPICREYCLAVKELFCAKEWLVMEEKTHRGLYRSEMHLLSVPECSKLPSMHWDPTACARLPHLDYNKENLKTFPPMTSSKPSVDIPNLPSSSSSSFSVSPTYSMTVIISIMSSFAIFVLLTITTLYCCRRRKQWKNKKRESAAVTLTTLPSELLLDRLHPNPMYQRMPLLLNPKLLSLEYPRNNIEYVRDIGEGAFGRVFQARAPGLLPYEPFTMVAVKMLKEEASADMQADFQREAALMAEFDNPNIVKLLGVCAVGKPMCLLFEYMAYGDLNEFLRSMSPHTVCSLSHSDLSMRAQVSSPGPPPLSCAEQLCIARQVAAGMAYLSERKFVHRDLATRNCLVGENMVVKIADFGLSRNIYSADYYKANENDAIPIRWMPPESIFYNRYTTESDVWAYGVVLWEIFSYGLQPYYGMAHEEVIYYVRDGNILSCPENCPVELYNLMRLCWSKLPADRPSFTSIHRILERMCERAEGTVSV
# How it was run: as §1
# AURKB (Aurora B) = AURKB (Aurora B) (Homo sapiens, UniProt Q96GD4); assay: Tyrosine kinase inhibition assay; format: biochemical; settings: single concentration 1.0 μM, read-out: percent inhibition
# Sequence of AURKB (Aurora B) (Q96GD4 whole entry): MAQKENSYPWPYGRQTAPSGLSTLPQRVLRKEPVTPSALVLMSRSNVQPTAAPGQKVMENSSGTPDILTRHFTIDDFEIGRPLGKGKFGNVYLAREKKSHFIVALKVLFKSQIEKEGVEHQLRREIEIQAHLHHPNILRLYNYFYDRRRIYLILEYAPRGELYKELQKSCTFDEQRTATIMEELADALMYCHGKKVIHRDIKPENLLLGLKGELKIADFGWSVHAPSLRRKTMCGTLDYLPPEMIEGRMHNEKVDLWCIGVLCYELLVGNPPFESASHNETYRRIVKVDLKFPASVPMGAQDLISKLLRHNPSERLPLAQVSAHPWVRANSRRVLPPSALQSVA
# How it was run: as §1
# TEC = target: T3, TEC (Homo sapiens, UniProt P42680); assay: Tyrosine kinase inhibition assay; format: biochemical; settings: single concentration 1.0 μM, read-out: percent inhibition
# T3 sequence (P42680 1-631): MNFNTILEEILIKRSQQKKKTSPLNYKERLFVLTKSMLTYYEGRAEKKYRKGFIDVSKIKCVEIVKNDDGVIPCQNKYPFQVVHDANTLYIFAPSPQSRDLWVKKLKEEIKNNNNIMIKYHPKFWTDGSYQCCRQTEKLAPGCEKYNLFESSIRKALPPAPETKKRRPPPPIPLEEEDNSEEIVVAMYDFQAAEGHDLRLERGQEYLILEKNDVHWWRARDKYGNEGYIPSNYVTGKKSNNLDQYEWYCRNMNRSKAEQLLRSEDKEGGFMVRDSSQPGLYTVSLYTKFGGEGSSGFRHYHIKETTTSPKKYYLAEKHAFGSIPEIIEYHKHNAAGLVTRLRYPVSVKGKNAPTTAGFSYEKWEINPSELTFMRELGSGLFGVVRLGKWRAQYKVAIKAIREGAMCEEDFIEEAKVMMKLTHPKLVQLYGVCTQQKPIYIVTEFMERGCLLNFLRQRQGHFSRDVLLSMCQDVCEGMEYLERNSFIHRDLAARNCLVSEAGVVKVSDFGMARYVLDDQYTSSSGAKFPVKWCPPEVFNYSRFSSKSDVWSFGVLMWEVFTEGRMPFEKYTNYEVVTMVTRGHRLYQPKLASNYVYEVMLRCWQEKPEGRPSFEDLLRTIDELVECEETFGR
# How it was run: as §1
# FES (FPS) = FES (FPS) (Homo sapiens, UniProt P07332); assay: Tyrosine kinase inhibition assay; format: biochemical; settings: single concentration 1.0 μM, read-out: percent inhibition
# Sequence of FES (FPS) (P07332 whole entry): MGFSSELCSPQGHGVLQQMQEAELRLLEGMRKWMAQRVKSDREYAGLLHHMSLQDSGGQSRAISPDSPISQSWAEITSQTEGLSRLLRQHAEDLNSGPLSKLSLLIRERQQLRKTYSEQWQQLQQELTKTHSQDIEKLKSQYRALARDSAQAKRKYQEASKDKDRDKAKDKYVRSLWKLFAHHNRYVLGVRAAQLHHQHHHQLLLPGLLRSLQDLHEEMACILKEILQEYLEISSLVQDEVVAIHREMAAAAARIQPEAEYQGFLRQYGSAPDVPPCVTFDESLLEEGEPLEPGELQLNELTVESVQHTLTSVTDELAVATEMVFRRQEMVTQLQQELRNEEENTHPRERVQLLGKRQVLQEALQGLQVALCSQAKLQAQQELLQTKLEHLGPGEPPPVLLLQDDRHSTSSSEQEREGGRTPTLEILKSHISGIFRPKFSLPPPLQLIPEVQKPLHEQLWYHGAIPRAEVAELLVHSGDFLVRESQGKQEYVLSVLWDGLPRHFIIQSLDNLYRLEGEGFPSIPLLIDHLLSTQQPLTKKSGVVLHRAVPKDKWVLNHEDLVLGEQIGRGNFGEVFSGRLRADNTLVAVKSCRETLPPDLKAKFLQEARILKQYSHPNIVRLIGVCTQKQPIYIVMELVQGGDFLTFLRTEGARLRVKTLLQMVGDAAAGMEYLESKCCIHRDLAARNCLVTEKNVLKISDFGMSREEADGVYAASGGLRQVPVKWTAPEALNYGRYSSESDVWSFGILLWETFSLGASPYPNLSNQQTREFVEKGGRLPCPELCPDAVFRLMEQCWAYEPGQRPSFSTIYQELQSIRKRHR
# How it was run: as §1
# YES1 = YES1 (Homo sapiens, UniProt P07947); assay: Tyrosine kinase inhibition assay; format: biochemical; settings: single concentration 1.0 μM, read-out: percent inhibition
# Sequence of YES1 (P07947 whole entry): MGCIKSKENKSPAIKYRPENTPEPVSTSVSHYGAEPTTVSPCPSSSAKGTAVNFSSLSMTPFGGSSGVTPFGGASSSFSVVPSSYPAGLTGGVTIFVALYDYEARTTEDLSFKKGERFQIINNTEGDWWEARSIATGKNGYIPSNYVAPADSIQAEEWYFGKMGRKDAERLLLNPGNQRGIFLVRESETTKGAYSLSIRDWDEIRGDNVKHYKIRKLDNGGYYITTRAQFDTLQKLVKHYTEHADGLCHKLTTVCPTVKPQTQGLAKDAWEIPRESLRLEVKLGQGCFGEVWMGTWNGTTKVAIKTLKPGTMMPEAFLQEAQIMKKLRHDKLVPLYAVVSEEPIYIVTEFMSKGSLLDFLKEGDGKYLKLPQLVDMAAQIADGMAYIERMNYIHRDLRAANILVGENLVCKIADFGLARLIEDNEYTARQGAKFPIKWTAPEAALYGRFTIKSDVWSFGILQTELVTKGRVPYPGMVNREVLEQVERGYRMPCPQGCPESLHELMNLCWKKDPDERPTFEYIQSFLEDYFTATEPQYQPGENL
# How it was run: as §1
# CT26 tumor = assay: Experimental tumor model and therapies, CT26 tumor-bearing mice;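 also: male Balb/c mice bearing CT26 grafts in the back, treated once tumors reached roughly 250–300 mm^3, tumor volume measured twice weekly, response graded by fold growth after treatment end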
# Description: LLC1 was grown at 37° C. under humidified air supplemented with CO2 in DMEM (#10-013-CM, Corning®) containing 10% heat inactivated fetal calf serum, and 1× concentration of MycoZap Antibiotics. CT26 was grown at 37° C. under humidified air supplemented with CO2 in RPMI1640 (cat. #10-040-CM, Corning®) containing 10% heat inactivated fetal calf serum, and 1× concentration of MycoZap Antibiotics. After the cancer cell culture was completed, it was implanted (1×10^6 cells/mouse) into the back of the mouse for growth.
# Six- to eight-week-old male Balb/c mice (National Laboratory Animal Center, Taiwan) were used for all animal experiments. […] Tumors were allowed to grow for 10-12 days (tumor size about 250-300 mm^3) before randomization and treatment. The tumor volume of the mice was measured once every three or four days (twice/week). Animals were euthanized when tumors reached more than 3000 mm^3 in diameter. […] Relapse/recurrence was defined as when tumor growth reappeared and tumor size reached at least 5 fold in mice with CR or PR response after secondary tumor assessment. In this study, we defined Complete Response (CR, <0.5 time tumor growth in the tumor bearing mice at tumor assessment after the end of treatment); Partial Response (PR, tumor size ≥0.5 time tumor growth, but <1 time tumor growth in the tumor bearing mice at tumor assessment after the end of treatment); Stable Disease (SD, ≥1 time tumor growth, but <5 times tumor growth in the tumor bearing mice at tumor assessment after the end of treatment); and Progressive Disease (PD, ≥5 times tumor growth in the tumor bearing mice at tumor assessment after the end of treatment) for the evaluation of treatment efficacy.
# [1] = FIG. 2E, oral once daily, Cabozantinib 30 mg/kg, Cbo-02 30 mg/kg, Chidamide-K30 50 mg/kg
# [2] = FIG. 3E, oral 12 days, Cabozantinib 30 mg/kg, Cbo-20 30 mg/kg, GNTbm-38-K30 40 mg/kg
# [3] = FIG. 6E, Cbo-23 30 mg/kg, Cabozantinib 30 mg/kg, GNTbm-38-K30 20 mg/kg
# [4] = FIG. 6F, Cbo-23 30 mg/kg, Cabozantinib 30 mg/kg, GNTbm-38-K30 20 mg/kg
# [5] = FIG. 5E, Cbo-23 30 mg/kg, Regorafenib 30 mg/kg, GNTbm-38-K30 20 mg/kg in combination, 5 mg/kg alone
Structure (SMILES),inhibition at 1 µM (AURKC (Aurora C)),inhibition at 1 µM (SRMS (Srm)),inhibition at 1 µM (MUSK),inhibition at 1 µM (AURKB (Aurora B)),inhibition at 1 µM (TEC),inhibition at 1 µM (FES (FPS)),inhibition at 1 µM (YES1),ORR (CT26 tumor; [1]),CR (number of mice) (CT26 tumor; [3]),ORR (CT26 tumor; [3]),PD (number of mice) (CT26 tumor; [3]),PR (number of mice) (CT26 tumor; [3]),Survival Rate (CT26 tumor; [4]),further results
"COc1cc2nccc(Oc3ccc(NC(=O)C4(C(=O)Nc5ccc(F)cc5)CC4)cc3)c2cc1OC [Cabozantinib, reference compound]",59%,96%,92%,84%,5%,30%,63%,0%,3,44%,2,1,33%,"CR (number of mice) (CT26 tumor; [2]): 0; ORR (CT26 tumor; [2]): 0%; PD (number of mice) (CT26 tumor; [2]): 5; PR (number of mice) (CT26 tumor; [2]): 0; Survival Rate (CT26 tumor; FIG. 3F, Cabozantinib 30 mg/kg, Cbo-20 30 mg/kg, GNTbm-38-K30 40 mg/kg): 0%; ORR (CT26 tumor; FIG. 4D, Cabozantinib 30 mg/kg, Cbo-22 30 mg/kg, GNTbm-38-K30 40 mg/kg): 0%; Survival Rate (CT26 tumor; FIG. 4E, Cabozantinib 30 mg/kg, Cbo-22 30 mg/kg, GNTbm-38-K30 40 mg/kg): 0%"
"COc1cc2nccc(Oc3ccc(NC(=O)C4(NC(=O)c5ccc(F)cc5)CC4)cc3F)c2cc1OC [Cbo-02, N-(1-((4-((6,7-diMethoxyquinolin-4-yl)oxy)-3-fluorophenyl)carbamoyl)cyclopropyl)-4-fluorobenzamide]",74%,12%,31%,99%,29%,38%,34%,10%,–,–,–,–,–,–
COc1cc2nccc(Oc3ccc(NC(=O)C4(NC(=O)c5ccc(F)cc5)CC4)cc3F)c2cc1Oc1ccc(N)cc1F [Cbo-10],63%,74%,68%,83%,80%,80%,64%,–,–,–,–,–,–,–
COc1cc2nccc(Oc3ccc(NC(=O)C4(NC(=O)c5ccc(F)cc5)CC4)cc3F)c2cc1Oc1c(F)cc(N)cc1F [Cbo-14],59%,84%,76%,84%,77%,78%,63%,–,–,–,–,–,–,–
COc1cc2nccc(Oc3ccc(NC(=O)C4(C(=O)Nc5ccc(F)cc5)CC4)cc3F)c2cc1Oc1ccc(N)cc1F [Cbo-23],41%,99%,85%,67%,37%,58%,94%,–,3,30%,7,0,20%,"CR (number of mice) (CT26 tumor; [5]): 2; ORR (CT26 tumor; [5]): 22%; PD (number of mice) (CT26 tumor; [5]): 7; PR (number of mice) (CT26 tumor; [5]): 0; Survival Rate (CT26 tumor; FIG. 5F, Cbo-23 30 mg/kg, Regorafenib 30 mg/kg, GNTbm-38-K30 20 mg/kg in combination, 5 mg/kg alone): 11%; recurrence rate (CT26 tumor; FIG. 5G, day 60, Cbo-23 30 mg/kg, Regorafenib 30 mg/kg, GNTbm-38-K30 20 mg/kg in combination, 5 mg/kg alone): 50%"
